Legend:
Assay type in all cases: cell-based, human
TMPRSS2 mRNA = test: Time-course TMPRSS2 expression in C4-2B cells
Description: C4-2B cells were plated at 1,000 cells per well in complete medium. […] ISIS 549148 was included as a negative control. […] After a treatment period of 8 hours, 24 hours, and 48 hours, AR expression was measured with primer probe set hAR-LTS00943. Results are presented in Tables 70-72 as percent expression of AR, relative to non-treated cells.
Expression analysis of prostate-specific antigen (PSA) and TMPRSS2 were also analyzed. Results are presented in Tables 73-75 as percent inhibition of PSA expression and Tables 76-78 as percent inhibition of TMPRSS2 expression, relative to non-treated cells.

AR mRNA [1] = test: AR RNA expression in LNCaP cells (complete, CSS, CSS+DHT medium); conditions: for Percent expression of AR in LNCaP cells cultured in CSS + DHT medium: CSS + DHT (1 nM) medium; for Percent expression of AR in LNCaP cells cultured in CSS + DHT medium / Percent expression of AR in LNCaP cells cultured in CSS medium: 48 hrs; for Percent expression of AR in LNCaP cells cultured in complete medium: 48 hours
Description: Cells were plated at 1,000 cells per well. […] After an incubation period of 48 hours, RNA levels of AR, PSA and TMPRSS2 were measured.
Cells were plated at 2,000 cells per well and cultured in phenol red-free RPMI supplemented with 5% charcoal stripped serum (Gibco) media for 16 hours. […] After an incubation period of 4 hrs, DHT was added to the medium to a final concentration of 1 nM as indicated. RNAs were collected 48 hrs later and levels of AR, PSA and TMPRSS2 were measured.

AR mRNA [2] = test: Time-course AR mRNA expression in C4-2B cells (8, 24, 48 hours); conditions: for Percent expression of AR compared to the control group in 8 hours / Percent expression of AR compared to the control group in 24 hours / Percent expression of AR compared to the control group in 48 hours: C4-2B cells
Description: C4-2B cells were plated at 1,000 cells per well in complete medium. […] After a treatment period of 8 hours, 24 hours, and 48 hours, AR expression was measured with primer probe set hAR-LTS00943.

AR V7 variant mRNA = test: AR V7 variant RNA in 22RV1 cells; conditions: RNAiMax, 48 hrs
PSA mRNA = test: PSA expression in C4-2 cells; conditions: 48 hrs; for Percent inhibition of PSA expression: C4-2 cells, CSS + DHT medium
Description: Cells were plated at 1,000 cells per well. […] After an incubation period of 48 hrs, RNA levels of AR, PSA and TMPRSS2 were measured.
Cells were plated at 2,000 cells per well and cultured in CSS media with 1 nM DHT. […] After an incubation period of 48 hrs, RNA levels of AR, PSA and TMPRSS2 were measured.

22RV1 cells = test: 22RV1 apoptosis (Caspase-glo 3/7); conditions: 72 hours; for Apoptosis (% untreated control): 22RV1 cells
Description: After a treatment period of 72 hours in complete medium or CSS+DHT medium, apoptosis of the cancer cells was measured with Caspase-glo 3/7 assay kit (Promega). Results are presented in Tables 131 and 132 as percent apoptosis of the cells, relative to non-treated cells.

AR mRNA [3] = test: AR RNA expression in C4-2B cells (complete, CSS+DHT medium; Example 30); conditions: 48 hrs
Description: Cells were plated at 1,000 cells per well. […] ISIS 549148 was included as a negative control. […] After an incubation period of 48 hrs, RNA levels of AR, PSA and TMPRSS2 were measured.
Cells were plated at 2,000 cells per well and cultured in CSS media with 1 nM DHT. […] ISIS 549148 was included as a negative control. […] After an incubation period of 48 hrs, RNA levels of AR, PSA and TMPRSS2 were measured. In the absence of DHT, AR expression in C4-2 cells was 188%, PSA expression was 43% and TMPRSS2 expression was 27% compared to the untreated control.

Question: What does the source list for “TTGATTTAATGGTTGC [ISIS 560131] (MOE and (S)-cEt gapmer chemistry, further chemistry not given here) [targets intron 1]”?
Answer: Percent inhibition of TMPRSS2 expression compared to the control group in 8 hours (TMPRSS2 mRNA; 0.04 μM): 0%; Percent inhibition of TMPRSS2 expression compared to the control group in 24 hours (TMPRSS2 mRNA; 0.04 μM): 35%; Percent inhibition of TMPRSS2 expression compared to the control group in 48 hours (TMPRSS2 mRNA; 0.04 μM): 46%; Percent inhibition of TMPRSS2 expression compared to the control group in 8 hours (TMPRSS2 mRNA; 0.2 μM): 0%; Percent inhibition of TMPRSS2 expression compared to the control group in 24 hours (TMPRSS2 mRNA; 0.2 μM): 57%; Percent inhibition of TMPRSS2 expression compared to the control group in 48 hours (TMPRSS2 mRNA; 0.2 μM): 71%; Percent inhibition of TMPRSS2 expression compared to the control group in 8 hours (TMPRSS2 mRNA; 1 μM): 6%; Percent inhibition of TMPRSS2 expression compared to the control group in 24 hours (TMPRSS2 mRNA; 1 μM): 66%; Percent inhibition of TMPRSS2 expression compared to the control group in 48 hours (TMPRSS2 mRNA; 1 μM): 77%; Percent inhibition of TMPRSS2 expression compared to the control group in 8 hours (TMPRSS2 mRNA; 5.0 μM): 0%; Percent inhibition of TMPRSS2 expression compared to the control group in 24 hours (TMPRSS2 mRNA; 5.0 μM): 67%; Percent inhibition of TMPRSS2 expression compared to the control group in 48 hours (TMPRSS2 mRNA; 5.0 μM): 76%; TMPRSS2 expression (TMPRSS2 mRNA; time course): reduced PSA and TMPRSS2 expression in the cells relative to the control set at the 24 hr and 48 hr time points; Percent expression of AR in LNCaP cells cultured in CSS + DHT medium (AR mRNA [1]; 0.04 μM): 101%; Percent expression of AR in LNCaP cells cultured in CSS + DHT medium (AR mRNA [1]; 0.2 μM): 71%; Percent expression of AR in LNCaP cells cultured in CSS + DHT medium (AR mRNA [1]; 1 μM): 27%; Percent expression of AR in LNCaP cells cultured in CSS + DHT medium (AR mRNA [1]; 5.0 μM): 10%; Percent expression of AR in LNCaP cells cultured in CSS medium (AR mRNA [1]; 0.04 μM): 81%; Percent expression of AR in LNCaP cells cultured in CSS medium (AR mRNA [1]; 0.2 μM): 46%; Percent expression of AR in LNCaP cells cultured in CSS medium (AR mRNA [1]; 1 μM): 16%; Percent expression of AR in LNCaP cells cultured in CSS medium (AR mRNA [1]; 5.0 μM): 5%; Percent expression of AR in LNCaP cells cultured in complete medium (AR mRNA [1]; 0.04 μM): 101%; Percent expression of AR in LNCaP cells cultured in complete medium (AR mRNA [1]; 0.2 μM): 53%; Percent expression of AR in LNCaP cells cultured in complete medium (AR mRNA [1]; 1 μM): 17%; Percent expression of AR in LNCaP cells cultured in complete medium (AR mRNA [1]; 5.0 μM): 7%; Percent expression of AR compared to the control group in 8 hours (AR mRNA [2]; 0.04 μM): 110%; Percent expression of AR compared to the control group in 24 hours (AR mRNA [2]; 0.04 μM): 47%; Percent expression of AR compared to the control group in 48 hours (AR mRNA [2]; 0.04 μM): 33%; Percent expression of AR compared to the control group in 8 hours (AR mRNA [2]; 0.2 μM): 85%; Percent expression of AR compared to the control group in 24 hours (AR mRNA [2]; 0.2 μM): 18%; Percent expression of AR compared to the control group in 48 hours (AR mRNA [2]; 0.2 μM): 5%; Percent expression of AR compared to the control group in 8 hours (AR mRNA [2]; 1 μM): 68%; Percent expression of AR compared to the control group in 24 hours (AR mRNA [2]; 1 μM): 5%; Percent expression of AR compared to the control group in 48 hours (AR mRNA [2]; 1 μM): 6%; Percent expression of AR compared to the control group in 8 hours (AR mRNA [2]; 5.0 μM): 45%; Percent expression of AR compared to the control group in 24 hours (AR mRNA [2]; 5.0 μM): 4%; Percent expression of AR compared to the control group in 48 hours (AR mRNA [2]; 5.0 μM): 4%; AR expression (AR mRNA [2]; C4-2B cells, 8, 24 and 48 hours): reduced AR expression in the cells relative to the control set; Percent inhibition of AR V7 variant (AR V7 variant mRNA; CSS + DHT medium, 1.34 nM): 63%; Percent inhibition of AR V7 variant (AR V7 variant mRNA; CSS + DHT medium, 4.0 nM): 83%; Percent inhibition of AR V7 variant (AR V7 variant mRNA; CSS + DHT medium, 13.4 nM): 93%; Percent inhibition of AR V7 variant (AR V7 variant mRNA; complete medium, 1.34 nM): 12%; Percent inhibition of AR V7 variant (AR V7 variant mRNA; complete medium, 4.0 nM): 29%; Percent inhibition of AR V7 variant (AR V7 variant mRNA; complete medium, 13.4 nM): 57%; Percent inhibition of AR V7 variant (AR V7 variant mRNA; complete medium, 40 nM): 81%; Percent inhibition of PSA expression (PSA mRNA; 0.04 μM): 10%; Percent inhibition of PSA expression (PSA mRNA; 0.2 μM): 24%; Percent inhibition of PSA expression (PSA mRNA; 1 μM): 49%; Percent inhibition of PSA expression (PSA mRNA; 5.0 μM): 74%; Percent inhibition of PSA expression in C4-2 cells cultured in complete medium (PSA mRNA; 0.04 μM): 48%; Percent inhibition of PSA expression in C4-2 cells cultured in complete medium (PSA mRNA; 0.2 μM): 78%; Percent inhibition of PSA expression in C4-2 cells cultured in complete medium (PSA mRNA; 1 μM): 88%; Percent inhibition of PSA expression in C4-2 cells cultured in complete medium (PSA mRNA; 5.0 μM): 89%; Apoptosis (% untreated control) (22RV1 cells; CSS + DHT medium, 1.34 nM): 121 % untreated control; Apoptosis (% untreated control) (22RV1 cells; CSS + DHT medium, 4.0 nM): 113 % untreated control; Apoptosis (% untreated control) (22RV1 cells; CSS + DHT medium, 13.4 nM): 172 % untreated control; Apoptosis (% untreated control) (22RV1 cells; CSS + DHT medium, 40 nM): 518 % untreated control; Apoptosis (% untreated control) (22RV1 cells; complete medium, 1.34 nM): 99 % untreated control; Apoptosis (% untreated control) (22RV1 cells; complete medium, 4.0 nM): 127 % untreated control; Apoptosis (% untreated control) (22RV1 cells; complete medium, 13.4 nM): 131 % untreated control; Apoptosis (% untreated control) (22RV1 cells; complete medium, 40 nM): 566 % untreated control; apoptosis of 22RV1 cells (22RV1 cells; complete or CSS+DHT medium): increased apoptosis of the cells in a dose dependent compared to the control; Percent expression of AR (AR mRNA [3]; CSS + DHT medium, 0.04 μM): 55%; Percent expression of AR (AR mRNA [3]; CSS + DHT medium, 0.2 μM): 31%; Percent expression of AR (AR mRNA [3]; CSS + DHT medium, 1 μM): 15%; Percent expression of AR (AR mRNA [3]; CSS + DHT medium, 5.0 μM): 13%; Percent expression of AR (AR mRNA [3]; complete medium, 0.04 μM): 34%; Percent expression of AR (AR mRNA [3]; complete medium, 0.2 μM): 15%; Percent expression of AR (AR mRNA [3]; complete medium, 1 μM): 14%; Percent expression of AR (AR mRNA [3]; complete medium, 5.0 μM): 14%

Source: USRE48461E1, “Modulation of androgen receptor expression” (Ionis Pharmaceuticals, Inc., priority 2012, dated 2021)
